Where two headings read alike, the source gives them in different places.
Key:
[1] = tested on: P. falciparum Dd2 Cytb F123L; test: SYBR Green ABS proliferation assay, NCGC00473217 selected clone G08; format: cell-based, Plasmodium falciparum; details: Plasmodium falciparum, DD2, NCGC00473217 selected clone G08; highest concentration 29 µM; read-out: AC50 [μM], Cytb F123L (converted)
In short: (§1)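 Asexual blood-stage proliferation of cytochrome b-mutant Dd2 clones after 72 h compound exposure at 37 °C in low-oxygen gas, quantified as control-normalized SYBR Green-I fluorescence; differences tested by two-sided t-test.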

[2] = tested on: P. falciparum Dd2 Cytb A122D; test: SYBR Green ABS proliferation assay, NCGC00473217 selected clone F12; format: cell-based, Plasmodium falciparum; details: Plasmodium falciparum
In short: as §1

[3] = tested on: P. falciparum Dd2 (clone B2) asexual blood stage parasites; test: P. falciparum Dd2 asexual blood stage SYBR Green-I 72 h proliferation assay (qHTS); format: cell-based, Plasmodium falciparum; details: Plasmodium falciparum, DD2, 72 h, SYBR Green 72 h
Aqueous solubility = format: physicochemical; details: aqueous media
Method: (§2) Pharmacokinetic modeling experiments, parallel artificial membrane permeability assay (PAMPA), solubility, and rat liver microsome stability assessment were performed on all synthetic compounds, as previously described[73]–[75].

[4] = tested on: P. falciparum Dd2 Cytb V259L; test: SYBR Green ABS proliferation assay, NCGC00473217 selected clone F06; format: cell-based, Plasmodium falciparum; details: Plasmodium falciparum
In short: as §1

[5] = tested on: P. falciparum Dd2 Cytb G131S; test: SYBR Green ABS proliferation assay, NCGC00374598 selected clone C11; format: cell-based, Plasmodium falciparum; details: Plasmodium falciparum
In short: as §1

[6] = Rat liver microsomal stability (RLMS); details: rat, rat liver microsomes
Method: as §2

[7] = Parallel artificial membrane permeability assay (PAMPA); format: in vitro ADME; details: pH 7.4
Method: as §2

HepG2 = details: human, hepg2 cells, 48 h
in vitro [8] = details: human, hepg2 cells
[9] = target: Firefly luciferase (Fluc, EC 1.13.12.7) (Photinus pyralis, UniProt P08659); test: biochemical; set-up: single determination (the paper says generally: 'qHTS assays were performed in a single replicate with a 7- to 11-point dose response format'; it is not stated for this counterscreen itself)
in vitro [10] = details: human, HepG2 cells; n = 1
[11] = tested on: Plasmodium falciparum Dd2 asexual blood stage parasites; test: microbe, parasite or virus in culture; set-up: species or system Plasmodium falciparum Dd2 in human erythrocytes; single determination (one 11-point concentration-response curve); details: Plasmodium falciparum, DD2, Erythrocyte, 72 h; read-out: AC50
HepG2-A16-CD81EGFP cells = details: average of 2 wells
[12] = tested on: P. berghei-ANKA-GFP-LucCON liver stage parasites in HepG2-A16-CD81EGFP cells; test: P. berghei liver stage Pb-Luc assay, Method 1 (UCSD, 1536-well); format: cell-based, Plasmodium berghei; details: Plasmodium berghei, 48 h, P. berghei liver stage, average of 2 wells on a 1536 well plate; for activity at 1 µM: 1 µM compound treatment (10 mM stocks); for activity at 3 µM: 3 µM compound treatment (10 mM stocks)
[13] = tested on: luciferase-expressing P. berghei liver stage parasites in HepG2 cells; test: Inhibition of liver-stage development assay (ILSDA), Method 2 (WRAIR, 96-well); format: cell-based, Plasmodium berghei; details: for AC50: Plasmodium berghei, HepG2, Method 2
in vitro [14] = details: human, HepG2-A16-CD81EGFP cells, uninfected
[15] = DD2, NCGC00473217 selected clone F12, read-out: AC50 [μM], Cytb A122D (converted)
[16] = WT Dd2-B2, read-out: AC50 Log[M] ± SD, Dd2-B2 (parental line) (converted)
[17] = approximate value in μM, read-out: AC50 [μM], Dd2-B2 (parental line) (converted)
[18] = DD2, NCGC00473217 selected clone F06, read-out: AC50 [μM], Cytb V259L (converted)
[19] = DD2, NCGC00473217 selected clone, read-out: AC50 Log[M] ± SD, Cytb V259L (converted)
[20] = DD2, NCGC00374598 selected clone C11, read-out: AC50 [μM], Cytb G131S (converted)
[21] = DD2, NCGC00374598 selected clone, read-out: AC50 Log[M] ± SD, Cytb G131S (converted)

Sequence of Firefly luciferase (Fluc, EC 1.13.12.7) (P08659 whole entry): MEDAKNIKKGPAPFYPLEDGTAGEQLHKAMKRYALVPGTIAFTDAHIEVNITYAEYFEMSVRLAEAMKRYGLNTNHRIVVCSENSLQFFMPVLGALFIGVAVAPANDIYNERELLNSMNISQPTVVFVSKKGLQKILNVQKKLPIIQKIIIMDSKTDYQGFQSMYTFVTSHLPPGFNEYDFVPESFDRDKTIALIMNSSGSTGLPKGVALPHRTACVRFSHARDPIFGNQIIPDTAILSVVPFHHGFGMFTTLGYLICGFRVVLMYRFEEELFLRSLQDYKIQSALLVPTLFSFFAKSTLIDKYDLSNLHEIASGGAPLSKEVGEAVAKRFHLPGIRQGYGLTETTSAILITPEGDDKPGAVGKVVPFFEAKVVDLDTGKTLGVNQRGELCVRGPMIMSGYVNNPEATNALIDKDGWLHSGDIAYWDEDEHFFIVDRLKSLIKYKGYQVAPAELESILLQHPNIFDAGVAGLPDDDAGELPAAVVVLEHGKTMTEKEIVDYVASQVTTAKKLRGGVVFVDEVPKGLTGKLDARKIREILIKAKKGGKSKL

SMILES | AC50 [1] | AC50 [2, 15] | AC50 [3, 17] | solubility (Aqueous solubility) | AC50 [4, 18] | AC50 [5, 20] | half-life [6] | AC50 [9] | further results
CCCN1C(CC2CCC2)=NS(=O)(=O)c2cc(NC(=O)c3cccs3)ccc21 [NCGC00537664] | > 29 µM | 1.35 µM | 4.48e-07 M | < 1 µg/mL | 1.19 µM | 0.466 µM | 4.3 min | – | AC50 ([2]; DD2, NCGC00473217 selected clone, read-out: AC50 Log[M] ± SD, Cytb A122D (converted)): 1.35 µM; AC50 [3, 16]: 4.47e-07 M; AC50 [4, 19]: 1.2 µM; AC50 [5, 21]: 0.468 µM
CN1C(c2ccccc2)=NS(=O)(=O)c2cc(NC(=O)c3ccc(F)cc3)ccc21 [NCGC00651719] | > 29 µM | > 29 µM | > 2.9e-05 M | < 1 µg/mL | > 29 µM | > 29 µM | > 30 min | – | PAMPA pH7.4 [7]: 3.25 1e-6 cm/s
CN1C(CC2CCCCC2)=NS(=O)(=O)c2cc(NC(=O)c3ccc(F)s3)ccc21 [NCGC00651709] | > 29 µM | > 29 µM | 1.5e-06 M | < 1 µg/mL | > 29 µM | > 29 µM | 12.9 min | – | AC50 [3, 16]: 1.48e-06 M
Cc1cc(N2CCN(C)CC2)nc2ccc(NC(=O)Nc3ccccc3Br)cc12 [NCGC00126483-01] | – | – | – | – | – | – | – | 17100 nM | Log AC50 (M) (HepG2): -4.3643 M; CC50 at 48 h (in vitro [8]): 43200 nM
Nc1ncnc2c1ncn2[C@@H]1O[C@H](CN[S+](=O)([O-])NC(=O)c2cccc(-c3noc(-c4ccccc4F)n3)c2)[C@@H](O)[C@H]1O [NCGC00183809-01] | – | – | – | – | – | – | – | 13.6 nM | CC50 at 48 h (in vitro [10]): 1720 nM
O=C1c2cnc(-c3cc4ccccc4o3)nc2OCCN1c1ccccc1 [NCGC00413607-01] | – | – | – | – | – | – | – | 622 nM | CC50 at 48 h (in vitro [10]): 8860 nM
CN1C(c2ccccc2)=NS(=O)(=O)c2cc(NC(=O)c3ccc(F)s3)ccc21 [NCGC00651712] | > 29 µM | > 29 µM | > 2.9e-05 M | < 1 µg/mL | > 29 µM | > 29 µM | > 30 min | – | –
COc1cc(SC)ccc1C(=O)Nc1nc2ccccc2[nH]1 [MLS001172173-01] | – | – | – | – | – | – | – | 17.1 nM | CC50 at 48 h (in vitro [10]): 19300 nM
Cc1nn(-c2ccccc2)c(C)c1/C=N/Nc1nc2ccccc2[nH]1 [MLS000332160-01] | – | – | – | – | – | – | – | 12100 nM | AC50 [11]: 1500 nM; HepG2 1uM growth rep1 (HepG2-A16-CD81EGFP cells; HepG2, 1 µM compound treatment (10 mM stocks), replicate 1, normalized): 93%; HepG2 1uM growth rep2 (HepG2-A16-CD81EGFP cells; HepG2, 1 µM compound treatment (10 mM stocks), replicate 2, normalized): 90%; HepG2 3uM growth rep1 (HepG2-A16-CD81EGFP cells; HepG2, 3 µM compound treatment (10 mM stocks), replicate 1, normalized): 89%; HepG2 3uM growth rep2 (HepG2-A16-CD81EGFP cells; HepG2, 3 µM compound treatment (10 mM stocks), replicate 2, normalized): 86%; activity at 1 µM ([12]; replicate 1, normalized, read-out: PbLuc 1uM growth rep1): 86%; activity at 1 µM ([12]; replicate 2, normalized, read-out: PbLuc 1uM growth rep2): 81%; activity at 3 µM ([12]; replicate 1, normalized, read-out: PbLuc 3uM growth rep1): 33%; activity at 3 µM ([12]; replicate 2, normalized, read-out: PbLuc 3uM growth rep2): 53%
CCCc1ccc(C(=O)NC(=O)c2ccccc2O)cc1 [MLS000850457-01] | – | – | – | – | – | – | – | 5410 nM | Max Resp (signal direction of the dose response) ([13]; Method 2, Decrease = decreasing P. berghei viability with dose, Increase = increasing signal, Inactive = no dose response): Decrease; AC50 ([13]; Hill fit, 50% of maximum activity response, read-out: AC50): 282 nM; AC50 ([13]; log10 of molar AC50 from Hill fit, read-out: Log AC50 (converted)): 282 nM; AC50 [11]: 1060 nM; viability at 48 h, 1 µM (in vitro [14]): 101%; viability at 48 h, 3 µM (in vitro [14]): 94%
CN1C(CC2CCCCC2)=NS(=O)(=O)c2cc(NC(=O)c3ccc(F)cc3)ccc21 [NCGC00651716] | > 29 µM | > 29 µM | > 2.9e-05 M | < 1 µg/mL | > 29 µM | > 29 µM | 6.6 min | – | –
CCCN1C(CC(C)C)=NS(=O)(=O)c2cc(NC(=O)c3ccc(Cl)s3)ccc21 [NCGC00523535] | > 29 µM | > 29 µM | 1.53e-06 M | < 1 µg/mL | 7.1 µM | 1 µM | 3.8 min | – | AC50 [3, 16]: 1.51e-06 M; AC50 [4, 19]: 7.08 µM; AC50 [5, 21]: 1 µM
NC(=NOC(=O)c1cccc(F)c1)c1ccccn1 [MLS001075504-01] | – | – | – | – | – | – | – | 10800 nM | Log AC50 (M) (HepG2): -4.8143 M; CC50 at 48 h (in vitro [8]): 15300 nM
CCCN1C(CC(C)C)=NS(=O)(=O)c2cc(NC(=O)c3ccc(Cl)cc3)ccc21 [NCGC00531775] | > 29 µM | > 29 µM | 1.26e-06 M | < 1 µg/mL | > 29 µM | 0.2 µM | 4.1 min | – | AC50 [3, 16]: 1.26e-06 M; AC50 [5, 21]: 0.2 µM
Cc1ccc(C)c(/N=N/c2nc3ccccc3n2C)c1 [MLS000577452-01] | – | – | – | – | – | – | – | 12100 nM | AC50 [11]: 299 nM; viability at 48 h, 1 µM (in vitro [14]): 95%; viability at 48 h, 3 µM (in vitro [14]): 88%
Cn1c(/N=N/c2ccccc2)nc2ccccc21 [MLS000700530-01] | – | – | – | – | – | – | – | 6810 nM | CC50 at 48 h (in vitro [10]): 12200 nM; AC50 [11]: 841 nM; viability at 48 h, 1 µM (in vitro [14]): 91%; viability at 48 h, 3 µM (in vitro [14]): 70%
CCCN1C(CC(C)C)=NS(=O)(=O)c2cc(NC(=O)c3ccc(F)cc3)ccc21 [NCGC00521139] | > 29 µM | > 29 µM | 5.23e-07 M | < 1 µg/mL | > 29 µM | 0.355 µM | 6.3 min | – | AC50 [3, 16]: 5.25e-07 M; AC50 [5, 21]: 0.355 µM
Cc1cccnc1Nc1nc(-c2ccccn2)cs1 [MLS000528306-01] | – | – | – | – | – | – | – | 19200 nM | AC50 [11]: 473 nM; viability at 48 h, 1 µM (in vitro [14]): 57%; viability at 48 h, 3 µM (in vitro [14]): 30%; Log AC50 (M) (HepG2): -5.9643 M; CC50 at 48 h (in vitro [8]): 1090 nM
